Experimental data as given in the supplement of paper PMC13380429.

Legend:
Conditions in all cases: 72 h
Calu-3 [1] = test: drug sensitivity score (DSS) for viability; higher = more toxic; extreme values may be limits of the assay
Caco-2 [2] = test: as above
HepG2 [3] = test: as above
U2OS [4] = test: as above
Calu-3 [5] = test: cell viability relative to DMSO; higher = less toxic
Caco-2 [6] = test: as above
HepG2 [7] = test: as above
U2OS [8] = test: as above
Calu-3 [9] = test: relative viability EC50 (midpoint between 100% and the lowest measured viability); higher = less toxic
Caco-2 [10] = test: as above
HepG2 [11] = test: as above
U2OS [12] = test: as above
Vero E6 [13] = test: drug sensitivity score (DSS) for viability; higher = more toxic; extreme values may be limits of the assay
Vero E6 [14] = test: cell viability relative to DMSO; higher = less toxic
Vero E6 [15] = test: relative viability EC50 (midpoint between 100% and the lowest measured viability); higher = less toxic

SMILES | drug sensitivity score (Calu-3 [1]) | drug sensitivity score (Caco-2 [2]) | drug sensitivity score (HepG2 [3]) | drug sensitivity score (U2OS [4]) | cell viability (Calu-3 [5]; 1 nM) [%] | cell viability (Calu-3 [5]; 10 nM) [%] | cell viability (Calu-3 [5]; 100 nM) [%] | cell viability (Calu-3 [5]; 1000 nM) [%] | cell viability (Calu-3 [5]; 10000 nM) [%] | cell viability (Caco-2 [6]; 1 nM) [%] | cell viability (Caco-2 [6]; 10 nM) [%] | cell viability (Caco-2 [6]; 100 nM) [%] | cell viability (Caco-2 [6]; 1000 nM) [%] | cell viability (Caco-2 [6]; 10000 nM) [%] | cell viability (HepG2 [7]; 1 nM) [%] | cell viability (HepG2 [7]; 10 nM) [%] | cell viability (HepG2 [7]; 100 nM) [%] | cell viability (HepG2 [7]; 1000 nM) [%] | cell viability (HepG2 [7]; 10000 nM) [%] | cell viability (U2OS [8]; 1 nM) [%] | cell viability (U2OS [8]; 10 nM) [%] | cell viability (U2OS [8]; 100 nM) [%] | cell viability (U2OS [8]; 1000 nM) [%] | cell viability (U2OS [8]; 10000 nM) [%] | relative viability EC50 (Calu-3 [9]) [µM] | relative viability EC50 (Caco-2 [10]) [µM] | relative viability EC50 (HepG2 [11]) [µM] | relative viability EC50 (U2OS [12]) [µM] | drug sensitivity score (Vero E6 [13]) | cell viability (Vero E6 [14]; 1 nM) [%] | cell viability (Vero E6 [14]; 10 nM) [%] | cell viability (Vero E6 [14]; 100 nM) [%] | cell viability (Vero E6 [14]; 1000 nM) [%] | cell viability (Vero E6 [14]; 10000 nM) [%] | relative viability EC50 (Vero E6 [15]) [µM]
c1cn2cc(-c3ccc4cn[nH]c4c3)nc(Nc3ccc(N4CCOCC4)cc3)c2n1 [GS-9973] | 0 | 0 | 0 | 0 | 95.2 | 103 | 90 | 94.3 | 92.7 | 108 | 108 | 98.3 | 99.7 | 91.4 | 105 | 103 | 100 | 93.8 | 92.5 | 94.1 | 101 | 98.2 | 98 | 92.2 | > 10 | > 10 | > 10 | > 10 |  |  |  |  |  |  | 
CCCn1c(=O)c2nc(C34CC5CC(CC3C5)C4)[nH]c2n(CCC)c1=O [KW-3902] | 0 | 0.9 | 0 | 0 | 83.8 | 89.3 | 92.6 | 96.6 | 100 | 95.9 | 94.4 | 101 | 95.1 | 82.5 | 94.2 | 92.9 | 98.2 | 101 | 91.6 | 98.8 | 96.5 | 100 | 99.5 | 102 | > 10 | > 10 | > 10 | > 10 |  |  |  |  |  |  | 
CCCS(=O)(=O)Nc1ccc(F)c(C(=O)c2c[nH]c3ncc(Cl)cc23)c1F [PLX4720] | 0 | 1.7 | 4.2 | 0 | 93.4 | 89.8 | 100 | 106 | 106 | 96.8 | 96.9 | 93.6 | 91 | 73.3 | 104 | 94.6 | 104 | 90.9 | 49.5 | 102 | 95.8 | 97.1 | 100 | 101 | > 10 |  | 1.82 | > 10 | 0.2 | 106 | 100 | 100 | 106 | 82.5 | > 10
CC(=O)O[C@]1(C(C)=O)CC[C@H]2[C@@H]3CCC4=CC(=O)CCC4=C3[C@@H](c3ccc(N(C)C)cc3)C[C@@]21C [Ulipristal acetate] | 0 | 1.8 | 0 | 0 | 105 | 106 | 97.1 | 104 | 110 | 94.7 | 94.7 | 98.3 | 97.9 | 67.8 | 110 | 110 | 103 | 97.9 | 104 | 103 | 103 | 99.1 | 99.6 | 94.9 | > 10 |  | > 10 | > 10 | 0 | 104 | 98.2 | 99.3 | 97 | 98.3 | > 10
C[S+](CC[C@H](N)C(=O)O)C[C@H]1O[C@@H](n2cnc3c(N)ncnc32)[C@H](O)[C@@H]1O (stereo not given in full) [ademetionine] | 0 |  | 0 | 0 | 106 | 106 | 105 | 99.8 | 96.3 |  |  |  |  |  | 94.7 | 105 | 89.9 | 91.4 | 91.3 | 100 | 97.9 | 98.5 | 98 | 106 | > 10 |  | > 10 | > 10 | 0 | 99.8 | 104 | 103 | 108 | 92.2 | > 10
CN1[C@H]2C[C@H](OC(=O)[C@H](CO)c3ccccc3)C[C@@H]1[C@@H](O)C2 [anisodamine] | 0 | 0 | 0 | 0 | 101 | 103 | 105 | 91.8 | 108 | 107 | 108 | 101 | 115 | 99.2 | 104 | 111 | 79.8 | 104 | 102 | 98 | 105 | 98.8 | 101 | 97.6 | > 10 | > 10 | > 10 | > 10 |  |  |  |  |  |  | 
CCC1(c2c[nH]cn2)Cc2ccccc2C1 [atipamezole] | 0 | 0 | 0 |  | 96.9 | 101 | 94.9 | 106 | 93.5 | 104 | 115 | 104 | 100 | 108 | 102 | 95.5 | 111 | 100 | 109 |  |  |  |  |  | > 10 | > 10 | > 10 |  |  |  |  |  |  |  | 
CC(C)c1cc(C(C)C)c(CC(=O)NS(=O)(=O)Oc2c(C(C)C)cccc2C(C)C)c(C(C)C)c1 [avasimibe] | 0 | 0.8 | 1 | 0 | 92.2 | 104 | 99.1 | 98.8 | 102 | 90.3 | 96.3 | 91 | 106 | 72.3 | 102 | 108 | 106 | 97.6 | 79.4 | 97.6 | 98.7 | 95.4 | 99.7 | 92.3 | > 10 |  | > 10 | > 10 | 0.6 | 100 | 94.8 | 93.2 | 94.4 | 81 | > 10
